# Data taken from PubChem BioAssay AID651581 (Sanford-Burnham Center for Chemical Genomics, 2012).
# Calls of active or inactive are those of the source. How the calls were made is not given here.
# Key:
# [1] = biological target: Hypoxia-inducible factor 1-alpha (Homo sapiens) (UniProt Q16665); assay: potency against HIF reporters across cell lines – luminescence, panel, selectivity assay for HIF-2a inhibitor project, dose response (AID 651581); conditions: human cell HIF reporter, HIF-1a
# [2] = biological target: Endothelial PAS domain-containing protein 1 (Homo sapiens) (UniProt Q99814); assay: as above; conditions: human cell HIF reporter
# Hypoxia-inducible factor 1-alpha (Homo sapiens), sequence (Q16665 whole entry, looked up, the tested form may be a part): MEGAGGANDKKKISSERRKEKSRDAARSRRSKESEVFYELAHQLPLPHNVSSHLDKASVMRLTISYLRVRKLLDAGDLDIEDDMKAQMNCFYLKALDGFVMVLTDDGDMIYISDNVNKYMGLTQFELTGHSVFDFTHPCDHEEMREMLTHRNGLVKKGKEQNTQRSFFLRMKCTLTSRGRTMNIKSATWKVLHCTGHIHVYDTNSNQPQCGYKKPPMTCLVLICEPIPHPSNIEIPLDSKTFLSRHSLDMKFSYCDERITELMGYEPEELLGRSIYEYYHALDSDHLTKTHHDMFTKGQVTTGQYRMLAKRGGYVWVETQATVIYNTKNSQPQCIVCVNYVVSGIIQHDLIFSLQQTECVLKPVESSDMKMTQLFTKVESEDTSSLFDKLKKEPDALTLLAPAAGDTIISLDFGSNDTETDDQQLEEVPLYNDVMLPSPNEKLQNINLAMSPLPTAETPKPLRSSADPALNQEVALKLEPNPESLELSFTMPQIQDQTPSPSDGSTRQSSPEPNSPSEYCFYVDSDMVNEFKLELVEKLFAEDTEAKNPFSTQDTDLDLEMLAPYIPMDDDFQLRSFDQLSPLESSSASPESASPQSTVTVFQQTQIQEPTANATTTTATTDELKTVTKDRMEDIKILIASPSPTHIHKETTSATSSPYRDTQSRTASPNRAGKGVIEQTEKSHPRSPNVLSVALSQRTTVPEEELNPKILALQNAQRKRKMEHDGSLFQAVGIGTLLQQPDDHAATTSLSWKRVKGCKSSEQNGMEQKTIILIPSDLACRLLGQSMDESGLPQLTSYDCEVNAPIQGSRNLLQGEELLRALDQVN
IC50 ([1]; run 1) [µM],IC50 ([1]; run 2) [µM],"IC50 ([2]; HIF-2a PANC, mean of runs)","IC50 ([2]; HIF-2a PANC, run 1) [µM]","IC50 ([2]; HIF-2a PANC, run 2) [µM]","IC50 ([2]; HIF-2a, mean of runs)","IC50 ([2]; HIF-2a, run 1) [µM]","IC50 ([2]; HIF-2a, run 2) [µM]",IC50 ([1]; mean of runs),Structure (SMILES)
> 99,> 99,inactive,50.9,21.9,8.77 µM,8.96,8.59,–,Cc1cc(C)c(C)c(S(=O)(=O)ON2C(=O)c3ccccc3C2=O)c1C
41.9,> 99,> 99 µM (inactive),> 99,> 99,6.46 µM,6.81,6.12,–,Cc1cc(C(=O)Nc2cccc(C(=O)O)c2)oc1C
24.9,62.1,2.26 µM,3.23,1.3,inactive,7.4,14.9,43.5 µM,COc1ccc(-n2nc3ccc(N)cc3n2)cc1
> 99,> 99,9.77 µM,9.59,9.94,< 10 µM,< 10,< 10,–,COC(=O)c1cccc(-c2noc(-c3ccccc3F)n2)c1
1.26,1.83,0.975 µM,1.08,0.867,1.04 µM,0.993,1.08,inactive,O=C(CCCc1nc(-c2ccccc2Cl)no1)NC1CCCC1
2.91,1.65,–,> 99,16.5,1.64 µM,1.62,1.67,inactive,CC(=O)Nc1ccc(NC(=O)c2oc3cc(C)c(C)cc3c2C)cc1
> 99,> 99,> 99 µM (inactive),> 99,> 99,< 30 µM (inactive),< 30,< 30,–,O=C(O)c1cccc(-c2nnn(Cc3ccccc3Cl)n2)c1
15,10.5,7.38 µM,7.27,7.49,6.38 µM,7.04,5.72,inactive,O=C(CCCSc1nc2ccccc2s1)NC1=NCCS1
47.8,34.5,–,> 99,28.1,8.1 µM,7.79,8.42,41.1 µM,O=C(Nc1ccc(Cl)cc1Cl)c1cccc(N2C(=O)C=CC2=O)c1
20.4,33.5,1.29 µM,1.66,0.928,4.58 µM,4.66,4.49,27 µM,Cc1ccc(NC(=S)NNc2ncc(C(F)(F)F)cc2Cl)cc1
1.15,1.08,0.708 µM,0.793,0.623,0.276 µM,0.267,0.286,1.12 µM,Cc1c(CCC(=O)O)c(=O)oc2cc3oc4c(c3cc12)CCCC4
> 99,> 99,46.9 µM,21,72.7,< 30 µM (inactive),< 30,< 30,–,CCOc1ccc(C(=O)Nc2nnc(SCC(=O)NCC3CCCO3)s2)cc1 (stereo not given)
> 99,> 99,–,> 99,> 99,–,< 30,> 99,> 99 µM (inactive),Cc1nn(-c2ccccc2)c(Cl)c1/C=N/Nc1ccc(Cl)c(C(=O)O)c1
22.5,21.7,inactive,75.9,8.53,9.84 µM,9.59,10.1,inactive,O=C(O)c1ccc(N/N=C/c2ccc(C(F)(F)F)cc2)cc1
5.07,3.03,inactive,3.29,6.42,0.864 µM,0.858,0.87,4.05 µM,Cc1ccc(C(=O)c2cccc(N)c2)cc1C
> 99,48.2,–,< 30,45.6,4.17 µM,4.26,4.08,–,Cn1ncc2c(O/N=C(\N)c3ccc(C(C)(C)C)cc3)ncnc21
3.16,2.84,0.787 µM,0.773,0.801,1.43 µM,1.43,1.44,inactive,Cc1nc2cc(-c3ccc(Cl)cc3)nn2c(C)c1CCC(=O)NCc1ccco1
3.06,> 99,inactive,25.5,51.1,8.77 µM,8.62,8.91,–,O=Nc1c(O)ccc2cc(S(=O)(=O)O)ccc12
